Columns and labels:
μ-opioid receptor [1] = molecular target: T1, μ-opioid receptor (Homo sapiens, UniProt P35372); test: β-Arr2 activity response in U2OS cells, μ-opioid receptor; assay type: cell-based
Description: (§1) TABLE 4 provides activity response of certain Compounds of the present disclosure to the μ- and κ-opioid receptors that was determined in the above-described functional assays using U2OS cells.

Sprague-Dawley rats [2] = test: Hot plate analgesia in rats (observation of sedation); assay type: in vivo, rat
Description: To assess the actions of a Compound of the present disclosure for the treatment or prevention of acute pain, the rat hot plate test can also be used. Rats are tested using a hot plate apparatus consisting of a clear plexiglass cylinder with a heated metal floor maintained at a temperature of 48-52° C. (Model 7280, commercially available from Ugo Basile of Italy). […] Hot plate latencies are measured immediately before (pre-treatment) and 1, 3, and 5 hours following administration of a Compound of the present disclosure. The nocifensive behavioral endpoint is defined as any of the following: 1) paw withdrawal, either as a sustained lift or with shaking or licking; 2) alternating foot lifting; 3) escape or attempted escape from the testing device; or 4) vocalization. Data are expressed as response latency(s) and the percentage of the maximal possible effect is calculated as described above for the tail flick test. […]
Male, Sprague-Dawley rats (Harlan, weight 211-246 g; n=5-10/group) were baselined (“BL”) for latency on a hot plate which was set to 52° C. the day prior to dosing. […] The next day, vehicle (0.5% MC) po, Compound 1 po; or morphine sc, the positive control, were administered and thermal latency was assessed 1, 3, and 5 hours after dosing.
Data were analyzed by a two-way ANOVA using a Bonferroni Multiple Comparisons test, where *P<0.05 and ****P<0.0001 vs vehicle. […]

Sprague-Dawley rats [3] = test: Conditioned Place Preference (CPP) in rats; assay type: in vivo, rat; conditions: po in 0.5% MC, day 8, one-way ANOVA
Description: Conditioned Place Preference (CPP) test is a test typically used to measure drug liking.
Male, Sprague-Dawley rats (Harlan, weight 213-240 g) at the beginning of the dosing paradigm were baselined (“BL”) for initial preference (pretest; day 1) using automated conditioning chambers (MedAssociates, Fairfax, Vt.); n=10/group. An unbiased counterbalanced design was used in which rats were randomly assigned to each group with respect to compartment pairings based on weight.
Compound 1 was formulated in 0.5% MC and administered po., while oxycodone, the positive control was dissolved in saline and administered sc.
During the first conditioning session, half of the rats were confined to the black compartment paired with either vehicle (0.5% MC) po, oxycodone sc, or Compound 1 po administration, while the other half were placed in white compartment with similar pairings.
Rats were conditioned on alternate days for 6 total sessions (3 vehicle/3 oxycodone or Compound 1). Control rats received vehicle at each conditioning session. […]
Conditioned Place Preference (CPP) was determined on day 8, and is represented as the difference between the time (seconds) the rat spent in the drug-paired and vehicle-paired compartments. Data are represented as the means±S.E.M., and were analyzed by a one-way ANOVA where *P<0.05 vs vehicle.

μ-opioid receptor [4] = molecular target: T1, μ-opioid receptor; test: [35S]GTPγS functional assay, μ-opioid receptor (HEK-293 or CHO cells); assay type: biochemical; set-up: made in house; host or cells: HEK-293 or CHO
Description: [^35S]GTPγS functional assays were conducted using freshly thawed μ-receptor membranes prepared in-house from a cell line expressing recombinant μ opioid receptor in a HEK-293, CHO or U-2 OS cell background, or purchased from a commercial source (Perkin Elmer, Shelton, Conn.; or DiscovRx, Fremont, Calif.). Assay reactions were prepared by sequentially adding the following reagents to binding buffer (100 mM NaCl, 10 mM MgCl2, 20 mM HEPES, pH 7.4) on ice (final concentrations indicated): membrane protein (0.026 mg/mL), saponin ([…]), GDP ([…]) and [^35S]GTPγS (0.20 nM; Perkin Elmer, Shelton, Conn.). The prepared membrane solution (190 μl/well) was transferred to 96-shallow well polypropylene plates containing 10 μl of 20× concentrated stock solutions of the agonist [D-Ala^2, N-methyl-Phe^4 Gly-ol^5]-enkephalin (DAMGO) prepared in dimethyl sulfoxide (DMSO). Plates were incubated for 30 min at about 25° C. with shaking. […] BetaScint scintillation cocktail (Perkin Elmer, Shelton, Conn.) was added (50 μl/well) and plates were counted using a Packard Top-Count for 1 min/well. Data were analyzed using the sigmoidal dose-response curve fitting functions in GraphPad PRISM v. […]
(§2) TABLE 3 provides activity response of certain Compounds of the present disclosure to the μ- and κ-opioid receptors that was determined in the above-described functional assays using HEK-293 or CHO cells.

κ-opioid receptor [5] = molecular target: T2, κ-opioid receptor (Homo sapiens, UniProt P41145); test: [35S]GTPγS functional assay, κ-opioid receptor (HEK-293 or CHO cells); assay type: biochemical; set-up: made in house; host or cells: HEK-293 or CHO
Description: Membranes from HEK-293 cells, CHO or U-2 OS cells expressing the recombinant human kappa opioid receptor (κ) were prepared by lysing cells in ice cold hypotonic buffer (2.5 mM MgCl2, 50 mM HEPES, pH 7.4) (10 mL/10 cm dish) followed by homogenization with a tissue grinder/Teflon pestle. Membranes were collected by centrifugation at 30,000×g for 15 min at 4° C. and pellets were resuspended in hypotonic buffer to a final concentration of 1-3 mg/mL. Protein concentrations were determined using the BioRad protein assay reagent with bovine serum albumen as standard. Aliquots of κ receptor membranes were stored at −80° C.
Functional [^35S]GTPγS binding assays were conducted as follows. κ opioid receptor membrane solution was prepared by sequentially adding final concentrations of 0.026 μg/μl κ membrane protein (in-house), 10 μg/mL saponin, 3 μM GDP and 0.20 nM [^35S]GTPγS to binding buffer (100 mM NaCl, 10 mM MgCl2, 20 mM HEPES, pH 7.4) on ice. […] Fifty μl/well scintillation cocktail (Perkin Elmer, Shelton, Conn.) was added and plates were counted in a Packard Top-Count for 1 min/well.
as §2

κ-opioid receptor [6] = molecular target: T2, κ-opioid receptor; test: β-Arr2 activity response in U2OS cells, κ-opioid receptor; assay type: cell-based; set-up: expressed in transfected cells; host or cells: U2OS (U-2 OS)
Description: as §1

T2 sequence (P41145 whole entry): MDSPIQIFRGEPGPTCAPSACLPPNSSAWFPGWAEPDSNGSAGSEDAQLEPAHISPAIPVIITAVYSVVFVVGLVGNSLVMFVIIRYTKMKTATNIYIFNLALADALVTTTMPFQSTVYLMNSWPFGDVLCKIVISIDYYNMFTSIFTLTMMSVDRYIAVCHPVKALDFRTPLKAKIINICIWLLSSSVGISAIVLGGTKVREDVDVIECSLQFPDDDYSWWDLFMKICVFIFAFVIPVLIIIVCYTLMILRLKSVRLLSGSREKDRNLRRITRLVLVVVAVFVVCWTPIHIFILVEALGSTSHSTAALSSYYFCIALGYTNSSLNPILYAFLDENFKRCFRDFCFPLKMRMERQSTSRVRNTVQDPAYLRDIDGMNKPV
T1 sequence (P35372 whole entry, species assumed): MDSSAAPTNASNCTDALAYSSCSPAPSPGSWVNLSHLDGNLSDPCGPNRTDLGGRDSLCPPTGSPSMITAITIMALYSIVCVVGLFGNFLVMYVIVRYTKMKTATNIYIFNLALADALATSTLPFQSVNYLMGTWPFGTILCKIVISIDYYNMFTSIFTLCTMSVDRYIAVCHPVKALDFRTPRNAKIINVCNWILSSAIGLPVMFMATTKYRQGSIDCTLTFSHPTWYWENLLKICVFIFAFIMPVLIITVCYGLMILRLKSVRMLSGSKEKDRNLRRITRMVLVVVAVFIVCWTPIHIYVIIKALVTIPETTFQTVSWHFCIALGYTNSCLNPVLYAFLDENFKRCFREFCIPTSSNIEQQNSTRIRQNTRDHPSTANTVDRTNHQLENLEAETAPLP

Compound | EC50 (μ-opioid receptor [1]) [nM] | Emax (μ-opioid receptor [1]; U2OS cells) [%] | appearance of animals (sedation) in hot plate study (Sprague-Dawley rats [2]; 30-75 mg/kg po) | Conditioned Place Preference compared to the vehicle group (Sprague-Dawley rats [3]) | EC50 (μ-opioid receptor [4]) [nM] | Emax (μ-opioid receptor [4]; HEK-293 or CHO cells, relative to DAMGO, read-out: GTPγD μ Emax) [%] | EC50 (κ-opioid receptor [5]) [nM] | Emax (κ-opioid receptor [5]; HEK-293 or CHO cells, relative to U69,593, read-out: GTPγD κ Emax) [%] | EC50 (κ-opioid receptor [6]) [nM] | Emax (κ-opioid receptor [6]; U2OS cells) [%] | appearance of animals (sedation) in hot plate study (Sprague-Dawley rats [2]; sc, positive control)
CN1CC[C@]23CCCC[C@@]2(O)[C@H]1Cc1ccc(C(N)=O)cc13 [Compound 1, (4bS,8aS,9R)-8a-hydroxy-11-methyl-6,7,8,8a,9,10-hexahydro-5H-9,4b-(epiminoethano)phenanthrene-3-carboxamide] | 36.7 ± 5.4 | 8.58 ± 0.3 | appeared to be sedate | not statistically significant | 44.2 ± 11.9 | 50.5 ± 0.95 | 620 ± 91.1 | 14.9 ± 0.63 | > 20000 | -0.83 ± 0.17 | –
CN1CC[C@]23c4c5ccc(O)c4O[C@H]2[C@@H](O)C=C[C@H]3[C@H]1C5 [morphine, reference compound] | – | – | – | – | – | – | – | – | – | – | appeared to be sedate
